Tested on: HBV
Assay: HBV markers in HBV-infected primary human hepatocyte (PHH) co-culture
Type: cell-based
Experimental: A system comprising HBV-infected primary human hepatocytes (PHHs) was established by persistent HBV infection for over 30 days in a self-assembling, primary hepatocyte co-culture system (FIG. 12A). To generate the co-cultures system, primary human hepatocytes (PHH) (BioIVT) were plated at 350 k cells per well in a Collagen-Type I coated 24-well plate (Corning, 354408), and incubated at 37° C., 5% C02 to generate an adherent cell monolayer. 4 hrs post plating, plated hepatocytes were washed with CP medium (BioIVT) to remove any unadhered cells. 3T3-J2 murine embryonic fibroblasts (Kerafast (distributed from Howard Green (Harvard), Boston) were seeded at a ratio of 95% hepatocyte:5% fibroblast per well and cultured at 37° C., 5% C02 for an additional 12 hours to form co-cultures. Culture medium was replaced every 2 days (500 μL per well) for continued maintenance. Shown in FIG. 12C are images of transduced primary hepatocytes from two human hepatocyte donors, isolated from two different human livers. They were isolated, cryopreserved, and distributed for sale for research purposes by BioIVT (Maryland, US).
On the second day, post hepatocyte co-culture formation, lentivirus was added at an MOI 500 dropwise into culture medium per well. Co-cultures were transduced for 16 hours, prior to changing media for fresh CP medium (BioIVT). Culture medium was replaced every 2 days (500 μL per well) for continued maintenance. Protein expression occurs over 7 days period in hepatic co-cultures. At day 7 post transduction, co-cultures were transfected using lipofection based reagents co-formulated with gRNA and base-editor mRNA. Cells were lysed and harvested for gDNA 48 hours post transfection. FIG. 12B provides a timeline of the in vitro transduction schedule in either hepatocyte monolayers or hepatocyte co-cultures showing representative time points. Importantly, PHH cultures not treated with polyethylene glycol (PEG) during infection tend to have very low percentages of HBV infected PHH cells.
The infected cells, as gauged by HBV markers, respond to treatment as expected. […] The amounts of extracellular HBV DNA detected in the treated PHH cultures were similar to the amount observed in negative control cell cultures.
The experiments employed the approach using the HBV-infected PHH culture system and transfection of the PHH with components (base editors) of the base editor system as depicted in FIG. 19. Primary hepatocytes (PHH) co-cultures were infected with HBV in order to test antiviral efficacy of the base editors. The base editing reagents or components (base editor mRNA and synthetic gRNA) were transfected via lipofection twice over the course of two weeks. The first transfection was performed 3 days after infection to allow for complete formation of viral covalently closed circular DNA (cccDNA) at the time of the transfection. Extracellular parameters (HBsAg, HBeAg, and HBV DNA) were monitored over the course of the experiment and intracellular parameters (HBV DNA, viral RNA, and editing) were monitored at the end of the experiment. Briefly, on Day 0, PHH were infected with HBV (MOI=500). On Day 3 after HBV infection, the cells were transfected with base editing components, e.g., a BE and gRNA, or control(s). On Day 10, PHHs were subjected to another round of transfection. At the termination of the experiment, e.g., Day 17 or longer, e.g., Day 25, the PHH were lysed and extracellular amounts of HBsAg, HBeAg and HBV DNA were assessed. Also assessed were intracellular amounts of HBV DNA, viral RNA and the efficacy of base editing by the components of the base editor system versus control(s). Transfection details: RNA format, 800 ng total RNA per well in a 24 well plate (600 ng base editor+200 ng gRNA) transfected via lipofection (lipofectamin messengerMax, Thermofisher Scientific) according to the vendor's protocol. […]

[1] = 14-day PHH co-culture experiment, FIG. 20

C=C1[C@H](CO)[C@@H](O)C[C@@H]1n1cnc2c(=O)[nH]c(N)nc21 [entecavir]
HBV DNA [1]: reduces
HBsAg [1]: does not influence
pgRNA [1]: does not influence

C[C@H](Cn1cnc2c(N)ncnc21)OCP(=O)(O)O [tenofovir]
extracellular HBV DNA (compared to untreated HBV infected control cells, by day 7 post infection, FIG. 13B): significantly reduced
HBV surface antigen (HBsAg) (relative to negative controls, FIG. 13C): lower levels
intracellular HBV DNA (relative to negative controls, FIG. 13D): lower levels
total HBV RNA (relative to negative controls, FIG. 13E): lower levels
pre-genomic RNA (pgRNA) (relative to negative controls, FIG. 13F): lower levels
